Measured values: ChEMBL document CHEMBL3779781, “New direct inhibitors of InhA with antimycobacterial activity based on a tetrahydropyran scaffold” (Eur J Med Chem, 2016)

Experiments:
[1] = tested on: Mycobacterium tuberculosis; assay: Ratio of MIC for isoniazid resistant Mycobacterium tuberculosis H37Rv clinical isolate 4 harboring katG S315T mutant to MIC for Mycobacterium tuberculosis H37Rv; assay type: functional
[2] = tested on: Mycobacterium tuberculosis; assay: Antimycobacterial activity against isoniazid resistant Mycobacterium tuberculosis H37Rv clinical isolate 1 harboring katG S315T mutant; assay type: functional, H37Rv isolate 1
[3] = tested on: Mycobacterium tuberculosis; assay: Ratio of MIC for isoniazid resistant Mycobacterium tuberculosis H37Rv clinical isolate 6 harboring InhA promoter C-15T mutant to MIC for Mycobacterium tuberculosis H37Rv; assay type: functional
[4] = tested on: Mycobacterium tuberculosis; assay: Ratio of MIC for isoniazid resistant Mycobacterium tuberculosis H37Rv clinical isolate 7 harboring katG S315T mutant to MIC for Mycobacterium tuberculosis H37Rv; assay type: functional
[5] = tested on: Mycobacterium tuberculosis; assay: Antimycobacterial activity against isoniazid resistant Mycobacterium tuberculosis H37Rv clinical isolate 7 harboring katG S315T mutant; assay type: functional, H37Rv isolate 7
[6] = tested on: Mycobacterium tuberculosis; assay: Antimycobacterial activity against isoniazid resistant Mycobacterium tuberculosis H37Rv clinical isolate 6 harboring InhA promoter C-15T mutant; assay type: functional, H37Rv isolate 6
[7] = tested on: Mycobacterium tuberculosis; assay: Ratio of MIC for isoniazid resistant Mycobacterium tuberculosis H37Rv clinical isolate 1 harboring katG S315T mutant to MIC for Mycobacterium tuberculosis H37Rv; assay type: functional
[8] = tested on: Mycobacterium tuberculosis; assay: Antimycobacterial activity against isoniazid resistant Mycobacterium tuberculosis H37Rv clinical isolate 4 harboring katG S315T mutant; assay type: functional, H37Rv isolate 4
[9] = tested on: Mycobacterium tuberculosis; assay: Antimycobacterial activity against isoniazid resistant Mycobacterium tuberculosis H37Rv clinical isolate 3 harboring InhA promoter C-15T mutant; assay type: functional, H37Rv isolate 3
[10] = tested on: Mycobacterium tuberculosis; assay: Ratio of MIC for isoniazid resistant Mycobacterium tuberculosis H37Rv clinical isolate 2 harboring InhA promoter C-15T mutant to MIC for Mycobacterium tuberculosis H37Rv; assay type: functional
[11] = tested on: Mycobacterium tuberculosis; assay: Ratio of MIC for isoniazid resistant Mycobacterium tuberculosis H37Rv clinical isolate 3 harboring InhA promoter C-15T mutant to MIC for Mycobacterium tuberculosis H37Rv; assay type: functional
[12] = tested on: Mycobacterium tuberculosis; assay: Ratio of MIC for isoniazid resistant Mycobacterium tuberculosis H37Rv clinical isolate 5 harboring katG S315T mutant to MIC for Mycobacterium tuberculosis H37Rv; assay type: functional
[13] = tested on: Mycobacterium tuberculosis; assay: Antimycobacterial activity against isoniazid resistant Mycobacterium tuberculosis H37Rv clinical isolate 2 harboring InhA promoter C-15T mutant; assay type: functional, H37Rv isolate 2
[14] = tested on: Mycobacterium tuberculosis; assay: Antimycobacterial activity against isoniazid resistant Mycobacterium tuberculosis H37Rv clinical isolate 5 harboring katG S315T mutant; assay type: functional, H37Rv isolate 5

SMILES: Cc1cc(C)n(Cc2ccc(C(=O)NCC3(c4nc(-c5ccccc5)cs4)CCOCC3)cc2)n1
- Ratio [1]: 1
- MIC [2]: 15.6 µM
- Ratio [3]: 8
- Ratio [4]: 2
- MIC [5]: 15.6 µM
- MIC [6]: 62.5 µM
- Ratio [7]: 2
- MIC [8]: 7.8 µM
- MIC [9]: 62.5 µM
- Ratio [10]: 8
- Ratio [11]: 8
- Ratio [12]: 8
- MIC [13]: 62.5 µM
- MIC [14]: 62.5 µM

SMILES: NNC(=O)c1ccncc1 [ISONIAZID]
- Ratio [1]: 50
- MIC [2]: 50 µg/mL
- Ratio [3]: 3.1
- Ratio [4]: 400
- MIC [5]: 200 µg/mL
- MIC [6]: 1.56 µg/mL
- Ratio [7]: 100
- MIC [8]: 25 µg/mL
- MIC [9]: 1.56 µg/mL
- Ratio [10]: 6.25
- Ratio [11]: 3.1
- Ratio [12]: 25
- MIC [13]: 3.1 µg/mL
- MIC [14]: 12.5 µg/mL
